In ChEMBL document CHEMBL5244253, “Recent research progress on natural small molecule bibenzyls and its derivatives in Dendrobium species” (Eur J Med Chem, 2020):

Legend:
HL-60 = assay: Anti-cancer activity against human HL-60 cells; assay type: functional, cell-based
FaDu = assay: Cytotoxicity against human FaDu cells assessed as cell viability incubated for 24 hrs by CCK-8 assay; assay type: functional, cell-based
NCI-H23 = assay: Anti-cancer activity against human NCI-H23 cells; assay type: functional, cell-based
[1] = Antioxidant activity assessed as DPPH radical scavenging activity incubated for 30 mins by spectrophotometric analysis; assay type: functional
THP-1 = assay: Anti-cancer activity against human THP-1 cells; assay type: functional, cell-based
[2] = Antioxidant activity assessed as DPPH radical scavenging activity at 100 ug/ml incubated for 30 mins by spectrophotometric analysis; assay type: functional; settings: dose 100.0 µg/ml
PC-12 [3] = assay: Neurotrophic activity in rat PC-12 cells assessed as induction of NGF-mediated neurite outgrowth at 10 uM measured after 72 hrs relative to control; assay type: functional
RAW264.7 = assay: Antiinflammatory activity in mouse RAW264.7 cells assessed as inhibition of LPS-induced NO production at 25 uM measured after 24 hrs; assay type: functional
PC-12 [4] = assay: Neuroprotection against Amyloid beta (25 to 35)-induced toxicity in rat PC-12 cells assessed as increase in cell viability at 25 uM for 24 hrs by MTT assay relative to control; assay type: functional
PC-12 [5] = assay: Neuroprotection against Amyloid beta (25 to 35)-induced toxicity in rat PC-12 cells assessed as increase in cell viability at 50 uM for 24 hrs by MTT assay relative to control; assay type: functional
PC-12 [6] = assay: Neuroprotection against Amyloid beta (25 to 35)-induced toxicity in rat PC-12 cells assessed as increase in cell viability at 10 uM for 24 hrs by MTT assay relative to control; assay type: functional
Bel-7402 = assay: Anti-cancer activity against human Bel-7402 cells; assay type: functional, cell-based
SGC-7901 = assay: Anti-cancer activity against human SGC-7901 cells; assay type: functional, cell-based
K562 = assay: Anti-cancer activity against human K562 cells; assay type: functional, cell-based
HT-29 = assay: Cytotoxicity against human HT-29 cells assessed as cell viability incubated for 72 hrs by MTT assay; assay type: functional, cell-based; settings: HT-29, 72 h
HepG2 = assay: Cytotoxicity against human HepG2 cells assessed as cell viability incubated for 72 hrs by MTT assay; assay type: functional, cell-based; settings: HepG2, 72 h
MDA-MB-231 = assay: Cytotoxicity against human MDA-MB-231 cells assessed as cell viability incubated for 72 hrs by MTT assay; assay type: functional, cell-based; settings: MDA-MB-231, 72 h
Alpha amylase = Alpha amylase (Homo sapiens, UniProt P0DUB6); assay: Inhibition of alpha-amylase (unknown origin) by HPLC analysis
NCI-H292 = assay: Anti-cancer activity against human NCI-H292 cells; assay type: functional, cell-based
[7] = target: Aldo-keto reductase family 1 member B1 (Homo sapiens, UniProt P15121); assay: Inhibition of aldose reductase (unknown origin) using DL-glyceraldehyde as substrate
[8] = target: Nitric oxide synthase, inducible (Homo sapiens, UniProt P35228); assay: Inhibition of iNOS (unknown origin)
[9] = Permeability of the compound by PAMPA-BBB assay; assay type: ADME; settings: read-out: permeability

Alpha amylase, sequence (P0DUB6 whole entry): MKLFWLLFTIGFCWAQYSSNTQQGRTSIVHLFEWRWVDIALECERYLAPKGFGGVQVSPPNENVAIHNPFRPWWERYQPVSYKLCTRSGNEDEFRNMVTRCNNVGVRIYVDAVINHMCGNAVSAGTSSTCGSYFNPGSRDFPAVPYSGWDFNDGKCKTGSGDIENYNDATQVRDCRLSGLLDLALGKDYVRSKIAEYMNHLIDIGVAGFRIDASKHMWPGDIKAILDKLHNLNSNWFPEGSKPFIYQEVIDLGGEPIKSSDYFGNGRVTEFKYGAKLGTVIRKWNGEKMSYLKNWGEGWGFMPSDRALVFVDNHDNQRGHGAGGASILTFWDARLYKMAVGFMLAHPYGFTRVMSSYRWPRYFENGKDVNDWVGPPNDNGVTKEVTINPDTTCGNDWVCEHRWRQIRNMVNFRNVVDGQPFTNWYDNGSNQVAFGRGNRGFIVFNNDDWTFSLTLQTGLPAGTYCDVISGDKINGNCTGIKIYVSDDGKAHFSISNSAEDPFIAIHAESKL
Nitric oxide synthase, inducible, sequence (P35228 whole entry): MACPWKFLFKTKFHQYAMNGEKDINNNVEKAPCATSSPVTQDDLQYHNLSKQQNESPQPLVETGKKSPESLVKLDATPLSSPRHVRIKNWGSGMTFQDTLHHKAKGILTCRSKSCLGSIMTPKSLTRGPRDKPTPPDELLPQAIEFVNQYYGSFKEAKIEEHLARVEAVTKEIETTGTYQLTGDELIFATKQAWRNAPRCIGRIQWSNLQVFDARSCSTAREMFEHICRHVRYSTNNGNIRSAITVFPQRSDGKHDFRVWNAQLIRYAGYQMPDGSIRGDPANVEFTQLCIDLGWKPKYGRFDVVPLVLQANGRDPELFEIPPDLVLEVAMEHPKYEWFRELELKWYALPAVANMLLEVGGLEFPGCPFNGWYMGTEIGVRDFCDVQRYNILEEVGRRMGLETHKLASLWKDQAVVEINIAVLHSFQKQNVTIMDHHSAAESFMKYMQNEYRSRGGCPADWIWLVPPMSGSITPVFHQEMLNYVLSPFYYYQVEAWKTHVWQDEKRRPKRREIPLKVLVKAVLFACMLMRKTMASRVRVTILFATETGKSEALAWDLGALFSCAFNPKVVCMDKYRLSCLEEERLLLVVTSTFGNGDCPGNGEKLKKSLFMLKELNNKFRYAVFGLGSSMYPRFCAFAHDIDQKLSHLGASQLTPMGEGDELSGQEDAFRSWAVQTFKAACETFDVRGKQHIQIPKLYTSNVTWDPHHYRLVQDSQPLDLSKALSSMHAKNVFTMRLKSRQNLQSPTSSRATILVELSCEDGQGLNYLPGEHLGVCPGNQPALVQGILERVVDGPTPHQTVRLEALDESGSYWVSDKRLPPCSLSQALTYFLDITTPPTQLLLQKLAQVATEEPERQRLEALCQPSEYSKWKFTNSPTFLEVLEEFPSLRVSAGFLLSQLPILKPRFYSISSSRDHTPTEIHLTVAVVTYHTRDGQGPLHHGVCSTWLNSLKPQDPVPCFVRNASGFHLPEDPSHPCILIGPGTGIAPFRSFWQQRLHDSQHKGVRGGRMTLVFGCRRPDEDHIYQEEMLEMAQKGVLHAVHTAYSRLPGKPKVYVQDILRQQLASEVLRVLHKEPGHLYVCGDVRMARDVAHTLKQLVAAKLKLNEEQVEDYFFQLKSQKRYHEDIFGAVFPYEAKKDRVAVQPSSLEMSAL

Compound | Activity (PC-12 [4]) | Activity (PC-12 [5]) | Activity (PC-12 [6]) | also measured
COc1cc(CCc2cc(OC)c(O)c(OC)c2)ccc1O [MOSCATILIN] | – | – | – | IC50 (HL-60): 0.082 µM; IC50 (FaDu): 2.55 µM; IC50 (NCI-H23): 33.4 µM; IC50 [1]: 17.1 µM; IC50 (THP-1): 226 µM
COc1cc(O)cc(CCc2cccc(O)c2)c1 [BATATASIN III] | – | – | – | inhibition [2]: 36.3%; Activity (PC-12 [3]): 8.2%; inhibition at 25 µM (RAW264.7): 21.6%
CCCC(CCC)C(=O)Oc1c(OC)cc(CCc2ccc(OC)c(OC)c2)cc1OC | 55.21% | 60.02% | 50.11% | –
COc1cc(CCc2cccc(O)c2)cc(O)c1OC | – | – | – | IC50 (Bel-7402): 11.7 µM; IC50 (SGC-7901): 7.8 µM; IC50 (K562): 15.7 µM
COc1ccc(CCc2cc(O)c(O)c(OC)c2)cc1 | – | – | – | IC50 (HT-29): 88.2 µM; IC50 (HepG2): 138 µM; IC50 (HL-60): 10.7 µM; IC50 (MDA-MB-231): 80.5 µM; IC50 (Alpha amylase): 5990 µM
COc1cc(CCc2cc(OC)c3c(c2)O[C@@H](c2cc(OC)c(O)c(OC)c2)[C@H](CO)O3)ccc1O | – | – | – | Activity (PC-12 [3]): 7.86%
CCCOc1c(OC)cc(CCc2ccc(OC)c(OC)c2)cc1OC | 49.11% | 48.81% | 49.21% | –
CCCCC(C)Oc1c(OC)cc(CCc2ccc(OC)c(OC)c2)cc1OC (stereo unspecified) | 50.25% | 52.18% | 50.67% | –
COc1ccc(CCc2cc(OC)c(OCCC(C)C)c(OC)c2)cc1OC | 50.16% | 49.48% | 50.21% | –
CCCC(=O)Oc1c(OC)cc(CCc2ccc(OC)c(OC)c2)cc1OC | 50.12% | 49.37% | 54.89% | –
COc1cc(CCc2ccc(O)cc2)cc(OC)c1O | – | – | – | Activity (PC-12 [3]): 6.94%; IC50 (NCI-H292): 198 µM
COc1ccc(CCc2cc(OC)c(O)c3c2C(Cc2ccc(O)cc2)c2cc(O)c(O)c(OC)c2O3)cc1 (stereo unspecified) | – | – | – | IC50 [1]: 32.4 µM
COc1ccc(CCc2cc(OC)c(OCC(C)C)c(OC)c2)cc1OC | 50.12% | 49.89% | 54.53% | –
COc1ccc(CCc2cc(OC)c(OC(=O)CCC(C)C)c(OC)c2)cc1OC | 50.4% | 49.57% | 49.83% | –
CCCCOc1c(OC)cc(CCc2ccc(OC)c(OC)c2)cc1OC | 52.03% | 53.44% | 51.79% | –
COc1cc(CCc2ccc(O)c(O)c2)cc(OC)c1 | – | – | – | IC50 [7]: 39.2 µM

Compound | Activity (PC-12 [4]) | Activity (PC-12 [5]) | Activity (PC-12 [6]) | also measured
COc1cccc(CCc2ccc(O)c(O)c2)c1O | – | – | – | IC50 [8]: 434 µM; IC50 [7]: 126 µM
CCC(C)Oc1c(OC)cc(CCc2ccc(OC)c(OC)c2)cc1OC (stereo unspecified) | 49.73% | 48.75% | 49.02% | –
COc1ccc(CCc2cc(OC)c(OC(=O)C(C)C)c(OC)c2)cc1OC | 47.33% | 45.91% | 49.34% | –
COc1ccc(CCc2cc(OC)c(OC3CCCC3)c(OC)c2)cc1OC | 61.02% | 72.64% | 54.77% | Papp [9]: 7.6 ×10⁻⁶ cm/s
CCCCC(=O)Oc1c(OC)cc(CCc2ccc(OC)c(OC)c2)cc1OC | 41.9% | 48.63% | 49.73% | –
COc1ccc(CCc2cc(OC)c(OC(=O)c3ccccc3)c(OC)c2)cc1OC | 80.12% | 100.78% | 58.18% | Papp [9]: 6.9 ×10⁻⁶ cm/s
COc1cc(CCc2cccc(O)c2)cc(OC)c1O | – | – | – | IC50 (HL-60): 4.48 µM; IC50 (SGC-7901): 12.8 µM
CCCCC(CC)Oc1c(OC)cc(CCc2ccc(OC)c(OC)c2)cc1OC (stereo unspecified) | 54.78% | 58.88% | 51.03% | –
CCC(=O)Oc1c(OC)cc(CCc2ccc(OC)c(OC)c2)cc1OC | 44.21% | 44.4% | 45.31% | –
O=C1O[C@H]([C@@H](O)CO)C(O)=C1O [ASCORBIC ACID] | – | – | – | IC50 [1]: 23.2 µM
COc1cc([C@H](Cc2ccc(O)cc2)OC)cc(O)c1O | – | – | – | IC50 [1]: 34.2 µM
Oc1cc(O)cc(CCc2ccc3c(c2)OCO3)c1 | – | – | – | inhibition [2]: 88%; inhibition at 25 µM (RAW264.7): 22.1%
COc1ccc(CC2c3cc(O)c(O)c(OC)c3Oc3cc(O)c4c(c32)CCc2cc(O)ccc2-4)cc1 (stereo unspecified) | – | – | – | IC50 (HT-29): 30.4 µM; IC50 (HepG2): 51.3 µM; IC50 (MDA-MB-231): 25.2 µM
COc1cc(CCc2ccc(O)c(O)c2)cc(OC)c1O | – | – | – | IC50 [7]: 17.8 µM
Oc1ccc(CCc2ccc(O)c(O)c2)cc1O | – | – | – | IC50 [7]: 534 µM
